These compounds were tested against T1, estrogen receptor (Homo sapiens, UniProt P03372) (assay: AP assay (alkaline phosphatase activity in ECC-1 cells), agonist mode (absence of E2) and antagonist mode (presence of 500 pM E2)). Settings: 3 days, AP activity normalized to 500 pM E2 alone, agonist and antagonist mode combined.
T1 construct: endogenous in cells; host or cells: ECC-1 cells
T1 sequence (P03372 1-595): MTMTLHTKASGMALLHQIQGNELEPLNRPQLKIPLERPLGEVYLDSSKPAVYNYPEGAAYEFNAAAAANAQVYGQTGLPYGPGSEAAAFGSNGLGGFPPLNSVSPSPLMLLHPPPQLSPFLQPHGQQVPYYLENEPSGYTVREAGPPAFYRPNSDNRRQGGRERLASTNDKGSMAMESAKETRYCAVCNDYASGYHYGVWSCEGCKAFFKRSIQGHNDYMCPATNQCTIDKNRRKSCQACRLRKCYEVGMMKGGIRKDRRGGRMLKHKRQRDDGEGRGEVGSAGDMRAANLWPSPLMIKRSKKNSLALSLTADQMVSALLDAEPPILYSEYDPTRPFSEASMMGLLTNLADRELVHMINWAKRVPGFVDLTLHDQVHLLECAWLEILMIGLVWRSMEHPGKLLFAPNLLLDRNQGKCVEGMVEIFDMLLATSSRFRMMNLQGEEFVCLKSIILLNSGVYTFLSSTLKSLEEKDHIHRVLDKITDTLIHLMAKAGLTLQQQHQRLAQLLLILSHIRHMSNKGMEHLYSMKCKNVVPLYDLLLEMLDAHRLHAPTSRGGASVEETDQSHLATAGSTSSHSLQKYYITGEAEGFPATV
Format: cell-based
In short: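 Read-out is absorbance at 405 nm from p-nitrophenyl phosphate cleavage (40 min, 42 °C), expressed relative to 500 pM E2 alone. Compounds were applied to ECC-1 cells in hormone-depleted medium for 3 days, either alone (agonist) or alongside 500 pM E2 (antagonist).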

Row | Compound | Activity (estrogen receptor modulation, e.g., agonism and antagonism)
1 | C[C@@H]1Cc2c([nH]c3ccccc23)[C@@H](c2ccc3oc(CN4CC(CF)C4)nc3c2)N1CC(F)(F)CO [Compound I-80, 2,2-difluoro-3-[(1R,3R)-1-[2-[[3-(fluoromethyl)azetidin-1-yl]methyl]-1,3-benzoxazol-5-yl]-3-methyl-1,3,4,9-tetrahydropyrido[3,4-b]indol-2-yl]propan-1-ol] | +++ (estrogen receptor antagonism (i) with pIC50 greater than 7.5 and at least a 10% reduction in the E2-normalized signal in the AP assay (antagonist mode); and (ii) no more than 10% increase in E2-normalized signal in the AP assay (agonist mode))
2 | C[C@@H]1Cc2c([nH]c3ccccc23)[C@@H](c2cc(F)c3oc(CN4CC(CF)C4)nc3c2)N1CC(F)(F)CO [Compound I-81, 2,2-difluoro-3-[(1R,3R)-1-[7-fluoro-2-[[3-(fluoromethyl)azetidin-1-yl]methyl]-1,3-benzoxazol-5-yl]-3-methyl-1,3,4,9-tetrahydropyrido[3,4-b]indol-2-yl]propan-1-ol] | + (estrogen receptor agonism having (i) at least 80% increase in the E2-normalized signal in the AP assay (agonist mode) and (ii) no more than 80% reduction in the E2-normalized signal in the AP assay (antagonist mode))
3 | C[C@@H]1Cc2c([nH]c3ccccc23)[C@@H](c2ccc3oc(C4CN(CCCF)C4)nc3c2)N1CC(C)(C)F [Compound I-82, 5-[(1R,3R)-2-(2-fluoro-2-methyl-propyl)-3-methyl-1,3,4,9-tetrahydropyrido[3,4-b]indol-1-yl]-2-[1-(3-fluoropropyl)azetidin-3-yl]-1,3-benzoxazole] | + (estrogen receptor agonism having (i) at least 80% increase in the E2-normalized signal in the AP assay (agonist mode) and (ii) no more than 80% reduction in the E2-normalized signal in the AP assay (antagonist mode))
4 | C[C@@H]1Cc2c([nH]c3ccccc23)[C@@H](c2ccc3[nH]c(CN4CC5(CC(F)C5)C4)cc3c2)N1CC(C)(C)F [Compound I-87, (1R,3R)-1-(2-((6-fluoro-2-azaspiro[3.3]heptan-2-yl)methyl)-1H-indol-5-yl)-2-(2-fluoro-2-methylpropyl)-3-methyl-2,3,4,9-tetrahydro-1H-pyrido[3,4-b]indole] | + (estrogen receptor agonism having (i) at least 80% increase in the E2-normalized signal in the AP assay (agonist mode) and (ii) no more than 80% reduction in the E2-normalized signal in the AP assay (antagonist mode))
5 | C[C@@H]1Cc2c([nH]c3ccccc23)[C@@H](c2ccc3[nH]c(CN4CC(F)C4)cc3c2)N1CC(C)(C)F [Compound I-90, (1R,3R)-1-[2-[(3-fluoroazetidin-1-yl)methyl]-1H-indol-5-yl]-2-(2-fluoro-2-methyl-propyl)-3-methyl-1,3,4,9-tetrahydropyrido[3,4-b]indole] | + (estrogen receptor agonism having (i) at least 80% increase in the E2-normalized signal in the AP assay (agonist mode) and (ii) no more than 80% reduction in the E2-normalized signal in the AP assay (antagonist mode))
6 | CCC1CN(Cc2cc3cc([C@@H]4c5[nH]c6ccccc6c5C[C@@H](C)N4CC(C)(C)F)ccc3[nH]2)C1 [Compound I-91, (1R,3R)-1-[2-[(3-ethylazetidin-1-yl)methyl]-1H-indol-5-yl]-2-(2-fluoro-2-methyl-propyl)-3-methyl-1,3,4,9-tetrahydropyrido[3,4-b]indole] | + (estrogen receptor agonism having (i) at least 80% increase in the E2-normalized signal in the AP assay (agonist mode) and (ii) no more than 80% reduction in the E2-normalized signal in the AP assay (antagonist mode))
7 | C[C@@H]1Cc2c([nH]c3ccccc23)[C@@H](c2ccc3[nH]c(CN4CC(C)(C)C4)cc3c2)N1CC(C)(C)F [Compound I-92, (1R,3R)-1-[2-[(3,3-dimethylazetidin-1-yl)methyl]-1H-indol-5-yl]-2-(2-fluoro-2-methyl-propyl)-3-methyl-1,3,4,9-tetrahydropyrido[3,4-b]indole] | + (estrogen receptor agonism having (i) at least 80% increase in the E2-normalized signal in the AP assay (agonist mode) and (ii) no more than 80% reduction in the E2-normalized signal in the AP assay (antagonist mode))
8 | C[C@@H]1Cc2c([nH]c3ccccc23)[C@@H](c2ccc3[nH]c(CO)cc3c2)N1CC(C)(C)F [Compound I-93, [5-[(1R,3R)-2-(2-fluoro-2-methyl-propyl)-3-methyl-1,3,4,9-tetrahydropyrido[3,4-b]indol-1-yl]-1H-indol-2-yl]methanol] | + (estrogen receptor agonism having (i) at least 80% increase in the E2-normalized signal in the AP assay (agonist mode) and (ii) no more than 80% reduction in the E2-normalized signal in the AP assay (antagonist mode))
9 | COC1CN(Cc2cc3cc([C@@H]4c5[nH]c6ccccc6c5C[C@@H](C)N4CC(C)(C)F)ccc3[nH]2)C1 [Compound I-94, (1R,3R)-2-(2-fluoro-2-methyl-propyl)-1-[2-[(3-methoxyazetidin-1-yl)methyl]-1H-indol-5-yl]-3-methyl-1,3,4,9-tetrahydropyrido[3,4-b]indole] | + (estrogen receptor agonism having (i) at least 80% increase in the E2-normalized signal in the AP assay (agonist mode) and (ii) no more than 80% reduction in the E2-normalized signal in the AP assay (antagonist mode))
10 | CC(C)C1CN(Cc2cc3cc([C@@H]4c5[nH]c6ccccc6c5C[C@@H](C)N4CC(C)(C)F)ccc3[nH]2)C1 [Compound I-95, (1R,3R)-2-(2-fluoro-2-methyl-propyl)-1-[2-[(3-isopropylazetidin-1-yl)methyl]-1H-indol-5-yl]-3-methyl-1,3,4,9-tetrahydropyrido[3,4-b]indole] | + (estrogen receptor agonism having (i) at least 80% increase in the E2-normalized signal in the AP assay (agonist mode) and (ii) no more than 80% reduction in the E2-normalized signal in the AP assay (antagonist mode))
11 | C[C@@H]1Cc2c([nH]c3ccccc23)[C@@H](c2ccc3[nH]c(CN4CC(CC#N)C4)cc3c2)N1CC(C)(C)F [Compound I-98, 2-[1-[[5-[(1R,3R)-2-(2-fluoro-2-methyl-propyl)-3-methyl-1,3,4,9-tetrahydropyrido[3,4-b]indol-1-yl]-1H-indol-2-yl]methyl]azetidin-3-yl]acetonitrile] | ++ (estrogen receptor antagonism having (i) between 10% and 80% increase in the E2-normalized signal in the AP assay (agonist mode) and (ii) between 10% and 80% reduction in the E2-normalized signal in the AP assay (antagonist mode))
12 | C[C@@H]1Cc2c([nH]c3ccccc23)[C@@H](c2ccc3[nH]c(CN4CC(N(C)C)C4)cc3c2)N1CC(C)(C)F [Compound I-99, 1-[[5-[(1R,3R)-2-(2-fluoro-2-methyl-propyl)-3-methyl-1,3,4,9-tetrahydropyrido[3,4-b]indol-1-yl]-1H-indol-2-yl]methyl]-N,N-dimethyl-azetidin-3-amine] | ++ (estrogen receptor antagonism having (i) between 10% and 80% increase in the E2-normalized signal in the AP assay (agonist mode) and (ii) between 10% and 80% reduction in the E2-normalized signal in the AP assay (antagonist mode))
13 | C[C@@H]1Cc2c([nH]c3ccccc23)[C@@H](c2ccc3[nH]c(CN4CC(C(F)F)C4)cc3c2)N1CC(C)(C)F [Compound I-100, (1R,3R)-1-[2-[[3-(difluoromethyl)azetidin-1-yl]methyl]-1H-indol-5-yl]-2-(2-fluoro-2-methyl-propyl)-3-methyl-1,3,4,9-tetrahydropyrido[3,4-b]indole] | ++ (estrogen receptor antagonism having (i) between 10% and 80% increase in the E2-normalized signal in the AP assay (agonist mode) and (ii) between 10% and 80% reduction in the E2-normalized signal in the AP assay (antagonist mode))
14 | C[C@@H]1Cc2c([nH]c3ccccc23)[C@@H](c2ccc3[nH]c(CN4CC(F)(F)C4)cc3c2)N1CC(C)(C)F [Compound I-101, (1R,3R)-1-[2-[(3,3-difluoroazetidin-1-yl)methyl]-1H-indol-5-yl]-2-(2-fluoro-2-methyl-propyl)-3-methyl-1,3,4,9-tetrahydropyrido[3,4-b]indole] | ++ (estrogen receptor antagonism having (i) between 10% and 80% increase in the E2-normalized signal in the AP assay (agonist mode) and (ii) between 10% and 80% reduction in the E2-normalized signal in the AP assay (antagonist mode))
15 | C[C@@H]1Cc2c([nH]c3ccccc23)[C@@H](c2ccc3[nH]c(CN4CC(C)(F)C4)cc3c2)N1CC(C)(C)F [Compound I-102, (1R,3R)-1-[2-[(3-fluoro-3-methyl-azetidin-1-yl)methyl]-1H-indol-5-yl]-2-(2-fluoro-2-methyl-propyl)-3-methyl-1,3,4,9-tetrahydropyrido[3,4-b]indole] | ++ (estrogen receptor antagonism having (i) between 10% and 80% increase in the E2-normalized signal in the AP assay (agonist mode) and (ii) between 10% and 80% reduction in the E2-normalized signal in the AP assay (antagonist mode))
